Laboratory results published in US11427575B2, “Antitumor compound for activating JWA gene and degrading HER2, preparation method thereof, and application thereof” (SIMCERE PHARMACEUTICAL CO., LTD., priority 2019, dated 2022).

Tested on: promoter of JWA gene
Assay: Luciferase reporter gene under control of JWA gene promoter in HBE cells (high-throughput screening)
Format: cell-based, human
Conditions: 48 h
Excerpt: High-throughput screening (HTS) was used to identify the human bronchial epithelial (HBE) cells stably transfected with a DNA construct with a luciferase gene under control of a 2,000 bp long promoter of JWA gene.
FIG. 1 is a sequence containing the 2000 bp promoter sequence of JWA gene that was used for a luciferase reporter gene plasmid construction.

Row | SMILES | fluorescence intensity of reporter gene (0.05 μg/mL) | fluorescence intensity of reporter gene (0.10 μg/mL) | fluorescence intensity of reporter gene (0.21 μg/mL) | fluorescence intensity of reporter gene (0.41 μg/mL) | fluorescence intensity of reporter gene (0.83 μg/mL) | fluorescence intensity of reporter gene (1.65 μg/mL) | fluorescence intensity of reporter gene (3.30 μg/mL)
1 | COc1cccc2sc(Nc3nc4c(F)ccc(F)c4s3)nc12 [JAC1011, 4,7-difluoro-n-(4-methoxybenzo-thiazole-2-group) benzoylthiazole-2-amine] | 13255.33 | 13553.33 | 15397.33 | 19835.00 | 25886.67 | 31413.33 | 39676.33
2 | COc1cccc2sc(Nc3nc4c(F)cc(F)cc4s3)nc12 [JAC1012, 4,6-difluoro-n-(4-methoxylbenzene (d)thiazole-2-group) benzene (d) thiazole-2-amine] | 13448.67 | 13518.67 | 16205.00 | 19768.67 | 25237.33 | 33228.00 | 41139.33
3 | COc1cccc2sc(Nc3nc4c(C(F)(F)F)cccc4s3)nc12 [JAC1013, 4-methoxy-N-(4-(trifluoromethyl)benzo (d)thiazole-2-group) benzo (d) thiazole-2-amine] | 13315.33 | 12346.00 | 14926.00 | 16036.67 | 20014.00 | 26261.67 | 35332.33
4 | COc1cc(OC)c2nc(Nc3nc4c(C(F)(F)F)cccc4s3)sc2c1 [JAC1017, 4,6-dimethoxyn-(4-(trifluoromethyl)benzo (d)thiazole-2-group) benzo (d) thiazole-2-amine] | 12910.00 | 13086.67 | 14460.00 | 17188.00 | 22680.00 | 28406.00 | 37426.00
5 | COc1cc(OC)c2nc(Nc3nc4c(F)cccc4s3)sc2c1 [JAC1015, N-(4-fluorobenzoyl (d)thiazole-2-group)-4,6-dimethoxy benzozoyl (d) thiazole-2-amine] | 14335.33 | 15573.33 | 18260.67 | 22168.67 | 28162.67 | 30168.67 | 37663.33
6 | COc1ccc(OC)c2sc(Nc3nc4c(C(F)(F)F)cccc4s3)nc12 [JAC1016, 4,7-dimethoxyn-(4-(trifluoromethyl)benzene (d)thiazole-2-group) benzene (d) thiazole-2-amine] | 14360.00 | 16238.00 | 19226.00 | 24518.00 | 28746.00 | 32253.33 | 36361.67
7 | COc1ccc(OC)c2sc(Nc3nc4c(F)cccc4s3)nc12 [JAC1014, N-(4-fluorobenzoyl (d)thiazole-2-group)-4,7-dimethoxy benzozoyl (d) thiazole-2-amine] | 13835.33 | 14254.00 | 15262.67 | 18680.00 | 22088.00 | 28702.00 | 37664.67
